Measured values published in article PMC3177992 (Chemical research in toxicology, 2011).

Assays:
Type in all cases: in vitro ADME
[1] = biological target: T1, UGT1A8 (Homo sapiens, UniProt Q9HAW9); test: Glucuronidation assay, UGT1A8-over-expressing HEK293 cell homogenate
T1 sequence (Q9HAW9 26-530): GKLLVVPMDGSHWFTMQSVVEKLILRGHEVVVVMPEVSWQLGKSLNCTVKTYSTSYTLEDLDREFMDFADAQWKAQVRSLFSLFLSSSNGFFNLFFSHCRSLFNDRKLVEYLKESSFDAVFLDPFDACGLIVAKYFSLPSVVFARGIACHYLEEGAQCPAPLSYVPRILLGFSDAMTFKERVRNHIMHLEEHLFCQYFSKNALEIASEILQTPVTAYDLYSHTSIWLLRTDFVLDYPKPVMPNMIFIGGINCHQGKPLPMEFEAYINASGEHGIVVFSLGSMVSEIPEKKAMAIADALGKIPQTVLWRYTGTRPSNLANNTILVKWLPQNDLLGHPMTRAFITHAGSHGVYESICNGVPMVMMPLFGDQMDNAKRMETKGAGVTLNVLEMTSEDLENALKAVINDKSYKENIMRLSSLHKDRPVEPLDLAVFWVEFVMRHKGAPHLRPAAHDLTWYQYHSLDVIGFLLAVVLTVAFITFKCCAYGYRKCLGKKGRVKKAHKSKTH

[2] = biological target: T2, UGT1A10 (Homo sapiens, UniProt Q9HAW8); test: Glucuronidation assay, UGT1A10-over-expressing HEK293 cell homogenate
T2 sequence (Q9HAW8 26-530): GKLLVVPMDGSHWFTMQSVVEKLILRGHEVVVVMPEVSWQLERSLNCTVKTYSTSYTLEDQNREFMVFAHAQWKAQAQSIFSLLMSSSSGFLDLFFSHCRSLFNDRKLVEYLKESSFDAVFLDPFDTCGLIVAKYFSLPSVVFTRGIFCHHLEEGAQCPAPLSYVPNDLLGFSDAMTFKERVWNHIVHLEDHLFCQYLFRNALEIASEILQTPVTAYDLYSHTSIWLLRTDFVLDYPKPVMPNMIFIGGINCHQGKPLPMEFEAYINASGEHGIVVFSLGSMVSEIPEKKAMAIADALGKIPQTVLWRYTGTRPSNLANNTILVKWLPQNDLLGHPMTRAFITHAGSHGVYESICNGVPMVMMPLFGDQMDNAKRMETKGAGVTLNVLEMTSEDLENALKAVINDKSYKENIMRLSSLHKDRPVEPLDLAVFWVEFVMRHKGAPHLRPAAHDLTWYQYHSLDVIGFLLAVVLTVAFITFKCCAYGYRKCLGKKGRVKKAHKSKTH

[3] = biological target: T3, UGT1A1 (Homo sapiens, UniProt P22309); test: Glucuronidation assay, UGT1A1-over-expressing HEK293 cell homogenate
T3 sequence (P22309 26-533): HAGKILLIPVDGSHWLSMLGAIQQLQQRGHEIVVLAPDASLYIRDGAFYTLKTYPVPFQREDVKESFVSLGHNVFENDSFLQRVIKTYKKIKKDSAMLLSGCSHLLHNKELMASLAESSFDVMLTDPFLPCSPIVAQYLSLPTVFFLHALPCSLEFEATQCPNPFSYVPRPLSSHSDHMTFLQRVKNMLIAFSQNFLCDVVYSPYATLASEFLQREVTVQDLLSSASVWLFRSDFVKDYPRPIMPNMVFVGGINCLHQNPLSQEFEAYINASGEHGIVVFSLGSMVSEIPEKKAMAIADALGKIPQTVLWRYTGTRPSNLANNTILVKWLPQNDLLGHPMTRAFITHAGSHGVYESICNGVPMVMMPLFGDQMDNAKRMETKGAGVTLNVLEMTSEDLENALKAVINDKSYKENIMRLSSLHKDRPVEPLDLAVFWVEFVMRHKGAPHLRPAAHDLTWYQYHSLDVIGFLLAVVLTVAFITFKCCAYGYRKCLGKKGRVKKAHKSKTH

[4] = biological target: T4, UGT1A7 (Homo sapiens, UniProt Q9HAW7); test: Glucuronidation assay, UGT1A7-over-expressing HEK293 cell homogenate
T4 sequence (Q9HAW7 26-530): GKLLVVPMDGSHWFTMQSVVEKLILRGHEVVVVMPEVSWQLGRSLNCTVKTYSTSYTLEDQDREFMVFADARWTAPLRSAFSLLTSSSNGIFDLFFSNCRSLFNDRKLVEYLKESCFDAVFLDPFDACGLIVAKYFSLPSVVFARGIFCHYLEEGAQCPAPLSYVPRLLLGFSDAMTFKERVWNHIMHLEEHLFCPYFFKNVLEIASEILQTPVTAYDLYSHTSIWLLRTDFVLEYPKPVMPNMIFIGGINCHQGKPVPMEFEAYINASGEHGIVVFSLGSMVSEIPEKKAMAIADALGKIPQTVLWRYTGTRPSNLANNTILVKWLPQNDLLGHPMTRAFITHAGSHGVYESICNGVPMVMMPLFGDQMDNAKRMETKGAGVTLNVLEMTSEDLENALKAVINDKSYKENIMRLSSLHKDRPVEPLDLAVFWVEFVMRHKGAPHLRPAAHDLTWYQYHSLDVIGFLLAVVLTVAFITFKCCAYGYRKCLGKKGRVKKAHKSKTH

[5] = biological target: T5, UGT1A9 (Homo sapiens, UniProt O60656); test: Glucuronidation assay, UGT1A9-over-expressing HEK293 cell homogenate
T5 sequence (O60656 26-530): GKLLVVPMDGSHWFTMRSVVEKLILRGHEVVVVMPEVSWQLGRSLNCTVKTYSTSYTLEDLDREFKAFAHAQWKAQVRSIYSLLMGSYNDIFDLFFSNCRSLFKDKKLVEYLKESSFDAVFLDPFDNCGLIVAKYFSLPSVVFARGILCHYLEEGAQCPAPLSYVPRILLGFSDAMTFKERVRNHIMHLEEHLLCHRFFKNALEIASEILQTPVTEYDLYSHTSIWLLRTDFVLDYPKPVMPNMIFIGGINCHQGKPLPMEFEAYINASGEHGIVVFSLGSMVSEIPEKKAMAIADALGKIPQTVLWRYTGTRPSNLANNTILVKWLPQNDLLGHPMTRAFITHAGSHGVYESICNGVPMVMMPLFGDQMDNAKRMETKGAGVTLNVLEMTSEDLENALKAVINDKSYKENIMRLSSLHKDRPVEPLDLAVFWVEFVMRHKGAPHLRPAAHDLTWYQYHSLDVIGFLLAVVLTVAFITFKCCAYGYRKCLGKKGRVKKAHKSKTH

[6] = biological target: T6, UGT2B7 (Homo sapiens, UniProt P16662); test: Glucuronidation assay, UGT2B7-over-expressing HEK293 cell homogenate
T6 sequence (P16662 24-529): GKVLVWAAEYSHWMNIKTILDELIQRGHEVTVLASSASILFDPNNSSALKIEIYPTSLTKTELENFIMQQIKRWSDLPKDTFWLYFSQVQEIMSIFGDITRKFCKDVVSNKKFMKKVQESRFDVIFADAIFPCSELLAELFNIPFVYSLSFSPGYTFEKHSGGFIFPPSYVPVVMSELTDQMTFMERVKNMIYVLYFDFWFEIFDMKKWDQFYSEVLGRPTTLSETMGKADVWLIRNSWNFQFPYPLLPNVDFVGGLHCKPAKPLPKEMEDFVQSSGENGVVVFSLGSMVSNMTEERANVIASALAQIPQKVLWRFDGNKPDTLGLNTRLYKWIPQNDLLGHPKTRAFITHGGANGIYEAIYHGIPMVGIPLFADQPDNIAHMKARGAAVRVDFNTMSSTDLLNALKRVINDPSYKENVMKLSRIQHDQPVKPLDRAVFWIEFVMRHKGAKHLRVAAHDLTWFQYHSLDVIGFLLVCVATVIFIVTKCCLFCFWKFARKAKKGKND

[7] = glucuronide formation from the respective diol enantiomer

O=C(O)[C@H]1O[C@@H](O[C@H]2c3cc4ccc5cccc6c7ccccc7c(c3C=C[C@@H]2O)c4c56)[C@H](O)[C@@H](O)[C@@H]1O (relative stereo) [(+)-DB[a,l]P-11-Gluc, DB[a,l]P-(+)-trans-11-Gluc,12-ol]
Km [1]: 194 ± 39 µM | ratio of (+)-DB[a,l]P-11-Gluc : (−)-DB[a,l]P-11-Gluc formation [1]: 48 | kcat/Km [1, 7]: 0.80 ± 0.12 mM⁻¹ min⁻¹ | Km [2]: 33 ± 9.8 µM | ratio of (+)-DB[a,l]P-11-Gluc : (+)-DB[a,l]P-12-Gluc : (−)-DB[a,l]P-11-Gluc formation [2]: 19 | fold higher activity (kcat/KM) of UGT1A10 compared to UGTs 1A7 and 1A8 ([2]; comparing kcat/KM values): 12–72 fold | kcat/Km [2, 7]: 9.5 ± 2.0 mM⁻¹ min⁻¹ | Km [3]: 76 ± 21 µM | ratio of (+)-DB[a,l]P-11-Gluc : (+)-DB[a,l]P-12-Gluc : (−)-DB[a,l]P-11-Gluc formation [3]: 52 | kcat/Km [3, 7]: 6.1 ± 1.5 mM⁻¹ min⁻¹ | Km [4]: 43 ± 7 µM | ratio of (+)-DB[a,l]P-11-Gluc : (−)-DB[a,l]P-11-Gluc formation [4]: 67 | kcat/Km [4, 7]: 0.23 ± 0.11 mM⁻¹ min⁻¹ | Km [5]: 170 ± 10 nM | ratio of (+)-DB[a,l]P-11-Gluc : (−)-DB[a,l]P-11-Gluc formation [5]: 30 | fold higher activity (kcat/KM) of UGT1A9 than UGT1A1 ([5]; comparing kcat/KM values): approximately 489 fold | kcat/Km [5, 7]: 2980 ± 146 mM⁻¹ min⁻¹ | Km [6]: 175 ± 25 µM | kcat/Km [6, 7]: 0.38 ± 0.01 mM⁻¹ min⁻¹
